Measured values as given in patent publication US12290521B2, “Methods and materials for identifying and treating BET inhibitor-resistant cancers” (Mayo Foundation for Medical Education and Research, priority 2018, dated 2025).

Legend:
Type in all cases: cell-based, human
[1] = system: prostate cancer patient-derived organoid lines; assay: Organoid cell viability assay (2D and 3D); conditions: SPOP W131R-expressing organoid compared to two SPOP WT counterparts; 2D and 3D growth
Protocol: Organoid cells were obtained from Dr. Yu Chen from MSKCC and cultured according to the methodology as described elsewhere (Drost et al., Nat. Protoc., 11:347-358 (2016)). In brief, organoid cells were imbedded in 40 μL Matrigel each drop and cultured in FBS free DMEM/F12 medium supplied with several growth factors. Cell viability assays were conducted by plating 2,000 organoid cells per well of a collagen coated 96-well cell culture plate in […] media with vehicle (DMSO) control or JQ1 (0.05˜1 μM). Viable cells were counted by using a CellTiter-Glo (Promega) Luminescent Cell Viability Assay Kit.

[2] = system: BRD4; assay: ChIP-seq and ChIP-qPCR of BRD4 binding in C4-2 cells; conditions: control and SPOP-F133V C4-2 cells; JQ1 1 μM, 24 hours
Protocol: ChIP was performed as described elsewhere (Boyer et al., Cell, 122:947-956 (2005)). ChIP-seq libraries were prepared using the methods as described elsewhere (Boyer et al., Cell, 122:947-956 (2005)), and high throughput sequencing was performed using the Illumina HiSeq2000 platforms. The data were analyzed using the following pipeline: ChIP-seq raw reads were aligned to the human reference genome (GRCh37/hg19) using Bowtie2 (2.2.9), and reads mapped to one or two locations were kept for further analysis. Peak calling was performed by MACS2 (2.1.1) with p-value threshold of 1e-5. BigWig files were generated for visualization with the UCSC genome browser or IGV. GREAT (bejerano.stanford.edu/great/public/html/) was used to assign peaks to their potential target genes (a peak-gene association was determined if the peak fell into 2 kb region centering on the transcription start site of the gene). The common BRD4 target genes induced by SPOP F133V and HA-BRD4 expression were determined independently in each of two biological repeat experiments. Raw and processed data were deposited into NCBI Gene Expression Omnibus with accession number GSE88872.
For ChIP-qPCR experiments, DNAs pulled down by antibodies or non-specific IgG were amplified by real-time PCR. […]

[3] = system: DU145 cells; assay: Clonogenic survival (colony formation) assay; conditions: JQ1 for 3 days, harvested at day 10
Protocol: FIGS. 26A-26I. Determination of the role of DUB3-mediated stabilization of BRD4 in BET inhibitor resistance using both loss of function and gain of function approaches. (FIG. 26A) Western blot analysis of indicated proteins in PC-3 cells infected with lentivirus expressing control or DUB3-specific shRNA for 24 hours and then co-transfected with plasmids for wild-type (WT) and mutants of HA-DUB3 for 24 hours. (FIG. 26B) Western blot analysis of indicated proteins in PC-3 cells infected with lentivirus expressing control or DUB3-specific shRNAs for 24 hours and then co-transfected with the indicated plasmids for 24 hours. Cells were treated with MG132 for 8 hours before harvested. (FIG. 26C) DU145 cells were infected with lentivirus expressing control or DUB3-specific shRNAs. After 48 hours puromycin selection, cells were treated with I-BET (5 μM), PD0332991 (5 μM) or both followed by MTS assay. All data are shown as mean values±SD (n=6). ***P<0.001, n.s., not significant. (FIG. 26D, FIG. 26E) DU145 cells were infected with lentivirus expressing indicated shRNAs and/or plasmids. After 48 hours puromycin selection, cells were treated with JQ1 (2 μM), PD0332991 (5 μM) or both followed by MTS assay (FIG. 26D) and Western blot (FIG. 26E). The quantitative data are shown as mean values±SD (n=6). ***P<0.001, n.s., not significant. (FIG. 26F, FIG. 26G) DU145 cells were infected with lentivirus expressing indicated shRNAs and/or plasmids. After 48 hours puromycin selection, cells were treated with I-BET (5 μM), PD0332991 (5 μM) or both followed by MTS assay (FIG. 26F) and Western blot (FIG. 26G). All data are shown as mean values±SD (n=6). *P<0.05, ***P<0.001, n.s., not significant. (FIG. 26H) DU145 cells were infected with lentivirus expressing control, DUB3 expressing vector and/or control or BRD4-specific shRNAs. After 48 hours puromycin selection, cells were plated for clonogenic survival assay. Cells were treated with a series of JQ1 concentrations for 3 days and harvested at day 10. Colonies with more than 50 cells were counted. IC50 is shown as a dotted line in the middle of the graph. […] OE, overexpression. KD, shRNA-mediated knockdown. (FIG. 26I) DU145 cells were infected with lentivirus as in (FIG. 26H) for 48 hours and then treated with 0.5 μM of JQ1 for 3 days and harvested at day 10. Colonies were photographed and quantified. Data represent means±SEM (n=3); P values were determined by the unpaired two-tailed Student's t-test. *P<0.05, **P<0.01.
An appropriate number of cells for different dosages of JQ1 were plated onto 6-well plate and treated with JQ1 for three days. After three-day treatment, the medium was changed with fresh medium without drugs for another 8 days. […] Colonies with more than 50 cells were counted. […]

## Cc1sc2c(c1C)C(c1ccc(Cl)cc1)=N[C@@H](CC(=O)OC(C)(C)C)c1nnc(C)n1-2 [JQ1]
[1]
  sensitivity of organoid to JQ1: resistant
[2]
  BRD4 binding in the AR gene promoter: largely decreased
  BRD4 binding in the MYC gene enhancer: substantial reduction
[3]; DU145 BRD4 KD (shRNA knockdown)
  IC50: 278 nM
[3]; DU145 DUB3 OE (overexpression)
  IC50: 576 nM
[3]; DU145 DUB3 OE BRD4 KD
  IC50: 297 nM
[3]; DU145 EV (control)
  IC50: 421 nM
